Key:
human FPR2 = molecular target: T1, human FPR2 (Homo sapiens, UniProt P25090); assay: FPR2 cyclic adenosine monophosphate (cAMP) assay; type: cell-based; conditions: CHO cells overexpressing human FPR2; forskolin 5 μM; inhibition of cAMP production; HTRF; read-out: hFPR2 cAMP2 EC50
T1 sequence (P25090 1-351): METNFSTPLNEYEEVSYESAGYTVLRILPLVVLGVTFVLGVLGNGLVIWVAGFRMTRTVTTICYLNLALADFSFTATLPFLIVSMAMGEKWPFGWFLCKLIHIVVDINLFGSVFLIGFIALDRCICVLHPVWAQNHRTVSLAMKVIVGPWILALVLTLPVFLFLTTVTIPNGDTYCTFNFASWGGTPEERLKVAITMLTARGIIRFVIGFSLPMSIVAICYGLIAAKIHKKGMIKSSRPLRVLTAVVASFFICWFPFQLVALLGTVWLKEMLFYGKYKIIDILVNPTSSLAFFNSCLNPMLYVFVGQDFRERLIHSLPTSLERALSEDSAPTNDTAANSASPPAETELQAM
Outline: (§1)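 CHO/hFPR1 4,000 cells/well, forskolin 10 μM final; CHO/hFPR2 2,000 cells/well, forskolin 5 μM final. IBMX 200 μM, DMSO 1%, DPBS + Ca/Mg + 0.1% BSA, 30 min rt. HTRF cAMP; 4-PL fit.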

human FPR1 = molecular target: T2, human FPR1 (Homo sapiens, UniProt P21462); assay: FPR1 cyclic adenosine monophosphate (cAMP) assay; type: cell-based; conditions: CHO cells overexpressing human FPR1; forskolin 10 μM; inhibition of cAMP production; HTRF; read-out: hFPR1 cAMP2 EC50
T2 sequence (P21462 1-350): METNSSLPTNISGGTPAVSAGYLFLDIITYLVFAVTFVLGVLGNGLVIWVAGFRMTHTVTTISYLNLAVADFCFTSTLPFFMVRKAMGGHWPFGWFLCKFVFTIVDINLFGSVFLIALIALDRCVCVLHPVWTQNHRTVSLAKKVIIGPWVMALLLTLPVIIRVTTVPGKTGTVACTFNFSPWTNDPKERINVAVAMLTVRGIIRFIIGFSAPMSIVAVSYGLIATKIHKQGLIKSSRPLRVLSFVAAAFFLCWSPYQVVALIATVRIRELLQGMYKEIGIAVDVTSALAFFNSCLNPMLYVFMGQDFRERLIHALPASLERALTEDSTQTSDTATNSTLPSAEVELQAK
Outline: as §1

Compound: COc1cc(F)c(-c2c(NC(=O)c3ccc(OC(F)F)cc3)c(=O)n(-c3nccc(C)c3Cl)n2C)c(F)c1 [Example 180, N-[2-(3-chloro-4-methylpyridin-2-yl)-5-(2,6-difluoro-4-methoxyphenyl)-1-methyl-3-oxo-2,3-dihydro-1H-pyrazol-4-yl]-4-(difluoromethoxy)benzamide]
- EC50 (human FPR2): 0.008 µM
- EC50 (human FPR1): > 10 µM

Compound: COCCOc1ccc(C(F)(F)F)c(-n2c(=O)c(NC(=O)c3ccc(OC(F)F)cc3)c(-c3c(F)cc(OC)cc3F)n2C)n1 [Example 278, N-[5-(2,6-difluoro-4-methoxyphenyl)-2-[6-(2-methoxyethoxy)-3-(trifluoromethyl)pyridin-2-yl]-1-methyl-3-oxo-2,3-dihydro-1H-pyrazol-4-yl]-4-(difluoromethoxy)benzamide]
- EC50 (human FPR2): 0.002 µM
- EC50 (human FPR1): > 10 µM

Compound: COc1cc(F)c(-c2c(NC(=O)c3ccc(OC(F)F)cc3)c(=O)n(-c3nc(N4CCNC(=O)C4)ccc3C(F)(F)F)n2C)c(F)c1 [Example 214, N-[5-(2,6-difluoro-4-methoxyphenyl)-1-methyl-3-oxo-2-[6-(3-oxopiperazin-1-yl)-3-(trifluoromethyl)pyridin-2-yl]-2,3-dihydro-1H-pyrazol-4-yl]-4-(difluoromethoxy)benzamide]
- EC50 (human FPR2): 0.004 µM
- EC50 (human FPR1): 0.15 µM

Compound: COc1cc(F)c(-c2c(NC(=O)c3ccc(Cl)cc3)c(=O)n(-c3ccccc3F)n2C)c(F)c1 [Example 30, 4-chloro-4-N-[5-(2,6-difluoro-4-methoxyphenyl)-2-(2-fluorophenyl)-1-methyl-3-oxo-2,3-dihydro-1H-pyrazol-4-yl]benzamide]
- EC50 (human FPR2): 0.018 µM
- EC50 (human FPR1): > 10 µM

Compound: COc1cc(F)c(-c2c(NC(=O)c3ccc(OC(F)F)cc3)c(=O)n(-c3nc(C(F)(F)F)ccc3OCC3CCOC3)n2C)c(F)c1 (stereo not drawn) [Example 369, N-(5-(2,6-Difluoro-4-methoxyphenyl)-1-methyl-3-oxo-2-(3-((tetrahydrofuran-3-yl)methoxy)-6-(trifluoromethyl)pyridin-2-yl)-2,3-dihydro-1H-pyrazol-4-yl)-4-(difluoromethoxy)benzamide]
- EC50 (human FPR2): 0.005 µM
- EC50 (human FPR1): > 10 µM

Compound: COc1cc(F)c(-c2c(NC(=O)c3ccc(Cl)cc3)c(=O)n(-c3ncccc3Cl)n2C)c(F)c1 [Example 164, 4-chloro-N-[2-(3-chloropyridin-2-yl)-5-(2,6-difluoro-4-methoxyphenyl)-1-methyl-3-oxo-2,3-dihydro-1H-pyrazol-4-yl]benzamide]
- EC50 (human FPR2): 0.015 µM
- EC50 (human FPR1): > 10 µM

Compound: COc1cc(C2CCCN(CCO)C2)nc(-n2c(=O)c(NC(=O)c3ccc(OC(F)F)cc3)c(-c3c(F)cc(OC)cc3F)n2C)c1 (stereo not drawn) [Example 340, N-(5-(2,6-Difluoro-4-methoxyphenyl)-2-(6-(1-(2-hydroxyethyl)piperidin-3-yl)-4-methoxypyridin-2-yl)-1-methyl-3-oxo-2,3-dihydro-1H-pyrazol-4-yl)-4-(difluoromethoxy)benzamide]
- EC50 (human FPR2): 0.01 µM
- EC50 (human FPR1): > 10 µM

Compound: COc1cc(F)c(-c2c(NC(=O)c3ccc(OC(F)(F)F)cc3)c(=O)n(-c3ccccc3)n2C)c(F)c1 [Example 4, N-[5-(2,6-difluoro-4-methoxyphenyl)-1-methyl-3-oxo-2-phenyl-2,3-dihydro-1H-pyrazol-4-yl]-4-(trifluoromethoxy)benzamide]
- EC50 (human FPR2): 0.008 µM
- EC50 (human FPR1): 1.3 µM

Compound: COc1cc(F)c(-c2c(NC(=O)c3ccc(OC(F)F)cc3)c(=O)n(-c3ccccc3C#N)n2C)c(F)c1 [Example 173, N-[2-(2-cyanophenyl)-5-(2,6-difluoro-4-methoxyphenyl)-1-methyl-3-oxo-2,3-dihydro-1H-pyrazol-4-yl]-4-(difluoromethoxy)benzamide]
- EC50 (human FPR2): 0.02 µM
- EC50 (human FPR1): > 10 µM

Compound: COc1cc(F)c(-c2c(NC(=O)c3ccc(OC(F)F)cc3)c(=O)n(-c3nc(NC[C@H](C)O)ccc3C(F)(F)F)n2C)c(F)c1 [Example 272, N-[5-(2,6-difluoro-4-methoxyphenyl)-2-(6-{[(2S)-2-hydroxypropyl]amino}-3-(trifluoromethyl)pyridin-2-yl)-1-methyl-3-oxo-2,3-dihydro-1H-pyrazol-4-yl]-4-(difluoromethoxy)benzamide]
- EC50 (human FPR2): 0.001 µM
- EC50 (human FPR1): > 10 µM

Compound: COc1cc(F)c(-c2c(NC(=O)c3ccc(OC(F)F)cc3)c(=O)n(-c3cccc(C)n3)n2C)c(F)c1 [Example 46, N-[5-(2,6-difluoro-4-methoxyphenyl)-1-methyl-2-(6-methylpyridin-2-yl)-3-oxo-2,3-dihydro-1H-pyrazol-4-yl]-4-(difluoromethoxy)benzamide]
- EC50 (human FPR2): 0.022 µM
- EC50 (human FPR1): > 10 µM

Compound: COc1cc(F)c(-c2c(NC(=O)c3ccc(OC(F)F)cc3)c(=O)n(-c3cc(OCC4CCCO4)cc(C)n3)n2C)c(F)c1 (stereo not drawn) [Example 396, N-(5-(2,6-Difluoro-4-methoxyphenyl)-1-methyl-2-(6-methyl-4-((tetrahydrofuran-2-yl)methoxy)pyridin-2-yl)-3-oxo-2,3-dihydro-1H-pyrazol-4-yl)-4-(difluoromethoxy)benzamide]
- EC50 (human FPR2): 0.002 µM
- EC50 (human FPR1): 0.3 µM

Compound: COc1cc(F)c(-c2c(NC(=O)c3ccc(OC(F)F)cc3)c(=O)n(-c3nc(C(C)(C)O)ccc3Cl)n2C)c(F)c1 [Example 276, N-{2-[3-chloro-6-(2-hydroxypropan-2-yl)pyridin-2-yl]-5-(2,6-difluoro-4-methoxyphenyl)-1-methyl-3-oxo-2,3-dihydro-1H-pyrazol-4-yl}-4-(difluoromethoxy)benzamide]
- EC50 (human FPR2): 0.004 µM
- EC50 (human FPR1): 2.89 µM

Compound: COc1cc(F)c(-c2c(NC(=O)c3ccc(OC(F)(F)F)cc3)c(=O)n(-c3ccccc3Cl)n2C)c(F)c1 [Example 172, N-[2-(2-chlorophenyl)-5-(2,6-difluoro-4-methoxyphenyl)-1-methyl-3-oxo-2,3-dihydro-1H-pyrazol-4-yl]-4-(trifluoromethoxy)benzamide]
- EC50 (human FPR2): 0.013 µM
- EC50 (human FPR1): 3.3 µM

Compound: COc1ccc(-c2c(NC(=O)c3ccc(OC(F)F)cc3)c(=O)n(-c3ncccc3Cl)n2C)cc1F [Example 294, N-[2-(3-chloropyridin-2-yl)-5-(3-fluoro-4-methoxyphenyl)-1-methyl-3-oxo-2,3-dihydro-1H-pyrazol-4-yl]-4-(difluoromethoxy)benzamide]
- EC50 (human FPR2): 0.032 µM
- EC50 (human FPR1): 1.4 µM

Compound: COc1cc(C2CCN(C)CC2)nc(-n2c(=O)c(NC(=O)c3ccc(OC(F)F)cc3)c(-c3c(F)cc(OC)cc3F)n2C)c1 [Example 363, N-(5-(2,6-Difluoro-4-methoxyphenyl)-2-(4-methoxy-6-(1-methylpiperidin-4-yl)pyridin-2-yl)-1-methyl-3-oxo-2,3-dihydro-1H-pyrazol-4-yl)-4-(difluoromethoxy)benzamide]
- EC50 (human FPR2): 0.003 µM
- EC50 (human FPR1): > 10 µM

Compound: COc1cc(F)c(-c2c(NC(=O)c3ccc(OC(F)F)cc3)c(=O)n(-c3cccc(N4CC(C)(O)C4)n3)n2C)c(F)c1 [Example 312, N-[5-(2,6-difluoro-4-methoxyphenyl)-2-[6-(3-hydroxy-3-methylazetidin-1-yl)pyridin-2-yl]-1-methyl-3-oxo-2,3-dihydro-1H-pyrazol-4-yl]-4-(difluoromethoxy)benzamide]
- EC50 (human FPR2): 0.012 µM
- EC50 (human FPR1): 2 µM

Compound: COc1ccc(-c2c(NC(=O)c3ccc(OC(F)F)cc3)c(=O)n(-c3ccccc3)n2C)cc1 [Example 7, 4-(difluoromethoxy)-N-[5-(4-methoxyphenyl)-1-methyl-3-oxo-2-phenyl-2,3-dihydro-1H-pyrazol-4-yl]benzamide]
- EC50 (human FPR2): 0.01 µM
- EC50 (human FPR1): 0.3 µM

Compound: COc1cc(F)c(-c2c(NC(=O)c3ccc(OC(F)F)cc3)c(=O)n(-c3cccc(OCC(C)(C)O)n3)n2C)c(F)c1 [Example 392, N-(5-(2,6-Difluoro-4-methoxyphenyl)-2-(6-(2-hydroxy-2-methylpropoxy)pyridin-2-yl)-1-methyl-3-oxo-2,3-dihydro-1H-pyrazol-4-yl)-4-(difluoromethoxy)benzamide]
- EC50 (human FPR2): 0.022 µM
- EC50 (human FPR1): 0.83 µM

Compound: COc1cc(F)c(-c2c(NC(=O)c3ccc(OC(F)F)cc3)c(=O)n(-c3nc(N(C)C)ccc3Cl)n2C)c(F)c1 [Example 147, N-{2-[3-chloro-6-(dimethylamino)pyridin-2-yl]-5-(2,6-difluoro-4-methoxyphenyl)-1-methyl-3-oxo-2,3-dihydro-1H-pyrazol-4-yl}-4-(difluoromethoxy)benzamide]
- EC50 (human FPR2): 0.003 µM
- EC50 (human FPR1): 0.73 µM

Compound: COc1cc(OCC2CCS(=O)(=O)CC2)nc(-n2c(=O)c(NC(=O)c3ccc(OC(F)F)cc3)c(-c3c(F)cc(OC)cc3F)n2C)c1 [Example 337, N-(5-(2,6-Difluoro-4-methoxyphenyl)-2-(6-((1,1-dioxidotetrahydro-2H-thiopyran-4-yl)methoxy)-4-methoxypyridin-2-yl)-1-methyl-3-oxo-2,3-dihydro-1H-pyrazol-4-yl)-4-(difluoromethoxy)benzamide]
- EC50 (human FPR2): 0.015 µM
- EC50 (human FPR1): > 10 µM
